Results on 22 compounds are retold here after patent US20080045506A1 (GLAXO GROUP LIMITED, priority 2004, published 2008).

The target in test [1] is T1, histamine H3 receptor (Homo sapiens, UniProt Q9Y5N1).
T1 construct: expressed in transfected cells; host or cells: CHO K1 cells (pSwitch/pGene GeneSwitch system, mifepristone-induced), clone 3H3; membranes
The test is described as follows: Histamine H3 functional antagonist assay (method A). Format: biochemical. The note with it: [35S]-GTPγS SPA, membrane prepared from cultured H3 cells, histamine at EC80, averages of a number of experiments, read-out: functional pKi (fpKi), antagonism (converted). An excerpt:
(§1) A membrane preparation containing histamine H3 receptors may be prepared in accordance with the following procedures:
(§2) (i) Generation of Histamine H3 Cell Line
(§3) DNA encoding the human histamine H3 gene (Huvar, A. et al. (1999) Mol. Pharmacol. 55(6), 1101-1107) was cloned into a holding vector, pcDNA3.1 TOPO (InVitrogen) and its cDNA was isolated from this vector by restriction digestion of plasmid DNA with the enzymes BamH1 and Not-1 and ligated into the inducible expression vector pGene (InVitrogen) digested with the same enzymes. The GeneSwitch™ system (a system where in transgene expression is switched off in the absence of an inducer and switched on in the presence of an inducer) was performed as described in U.S. Pat. Nos. 5,364,791; 5,874,534; and 5,935,934. Ligated DNA was transformed into competent DH5α E. coli host bacterial cells and plated onto Luria Broth (LB) agar containing Zeocin™ (an antibiotic which allows the selection of cells expressing the sh ble gene which is present on pGene and pSwitch) at 50 μg ml^−1. Colonies containing the re-ligated plasmid were identified by restriction analysis. DNA for transfection into mammalian cells was prepared from 250 ml cultures of the host bacterium containing the pGeneH3 plasmid and isolated using a DNA preparation kit (Qiagen Midi-Prep) as per manufacturers guidelines (Qiagen).
(§4) CHO K1 cells previously transfected with the pSwitch regulatory plasmid (InVitrogen) were seeded at 2×10e6 cells per T75 flask in Complete Medium, containing Hams F12 (GIBCOBRL, Life Technologies) medium supplemented with 10% v/v dialysed foetal bovine serum, L-glutamine, and hygromycin (100 μg ml^−1), 24 hours prior to use. Plasmid DNA was transfected into the cells using Lipofectamine plus according to the manufacturers guidelines (InVitrogen). 48 hours post transfection cells were placed into complete medium supplemented with 500 μg ml^−1 Zeocin™.
(§5) 10-14 days post selection 10 nM Mifepristone (InVitrogen), was added to the culture medium to induce the expression of the receptor. 18 hours post induction cells were detached from the flask using ethylenediamine tetra-acetic acid (EDTA; 1:5000; InVitrogen), following several washes with phosphate buffered saline pH 7.4 and resuspended in Sorting Medium containing Minimum Essential Medium (MEM), without phenol red, and supplemented with Earles salts and 3% Foetal Clone II (Hyclone). Approximately 1×10e7 cells were examined for receptor expression by staining with a rabbit polyclonal antibody, 4a, raised against the N-terminal domain of the histamine H3 receptor, incubated on ice for 60 minutes, followed by two washes in sorting medium. Receptor bound antibody was detected by incubation of the cells for 60 minutes on ice with a goat anti rabbit antibody, conjugated with Alexa 488 fluorescence marker (Molecular Probes). Following two further washes with Sorting Medium, cells were filtered through a 50 μm Filcon™ (BD Biosciences) and then analysed on a FACS Vantage SE Flow Cytometer fitted with an Automatic Cell Deposition Unit. Control cells were non-induced cells treated in a similar manner. Positively stained cells were sorted as single cells into 96-well plates, containing Complete Medium containing 500 μg ml^−1 Zeocin™ and allowed to expand before reanalysis for receptor expression via antibody and ligand binding studies. One clone, 3H3, was selected for membrane preparation.
(ii) Membrane Preparation from Cultured Cells […]
For orientation: Binding of GTPγS marks nucleotide exchange on a G protein.

The target in test [2] is T1, histamine H3 receptor. The test is described as follows: Histamine H3 functional antagonist assay (method B). Format: biochemical. The note with it: [35S]-GTPγS SPA, membrane prepared from cultured H3 cells, histamine at EC80, averages of a number of experiments, read-out: functional pKi (fpKi), antagonism (converted).
Excerpt: as §1, §2, §3, §4, §5
(ii) Membrane Preparation from Cultured Cells
All steps of the protocol are carried out at 4° C. and with pre-cooled reagents. The cell pellet is resuspended in 10 volumes of homogenisation buffer (50 mM N-2-hydroxyethylpiperazine-N′-2-ethanesulfonic acid (HEPES), 1 mM ethylenediamine tetra-acetic acid (EDTA), pH 7.4 with KOH, supplemented with 10e-6M leupeptin (acetyl-leucyl-leucyl-arginal; Sigma L2884), 25 μg/ml bacitracin (Sigma B0125), 1 mM phenylmethylsulfonyl fluoride (PMSF) and 2×10e-6M pepstain A (Sigma)). […]

Counter-ions that a name gives are not always drawn. Where only a bound is given, the exact number is not on record here.

T1 sequence (Q9Y5N1 whole entry): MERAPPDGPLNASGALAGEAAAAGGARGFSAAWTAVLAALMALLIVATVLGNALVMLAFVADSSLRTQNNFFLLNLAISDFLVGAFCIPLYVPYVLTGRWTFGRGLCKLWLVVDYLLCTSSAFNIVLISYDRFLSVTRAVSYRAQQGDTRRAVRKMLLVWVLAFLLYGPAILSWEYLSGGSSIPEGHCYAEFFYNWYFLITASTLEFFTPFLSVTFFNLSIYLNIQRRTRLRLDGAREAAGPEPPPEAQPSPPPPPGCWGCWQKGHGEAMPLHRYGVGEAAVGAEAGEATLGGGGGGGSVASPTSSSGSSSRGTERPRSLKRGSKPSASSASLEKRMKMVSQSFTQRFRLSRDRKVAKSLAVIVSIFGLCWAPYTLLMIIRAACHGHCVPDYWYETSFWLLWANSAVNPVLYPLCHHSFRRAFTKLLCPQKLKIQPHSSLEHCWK

With `O=C(C1CCN(c2ccc(C(F)(F)F)nc2)C1)N1CCCN(C2CCC2)CC1` (racemic) [Example E17, (R,S)-1-Cyclobutyl-4-({1-[6-(trifluoromethyl)-3-pyridinyl]-3-pyrrolidinyl}carbonyl)hexahydro-1H-1,4-diazepine], the values for the Ki at histamine H3 receptor [1] and at histamine H3 receptor [2] were under 0.316 nM and at most 0.316 nM, respectively.
As for `CC(C)N1CCCN(C(=O)C2CCN(c3ccc(C(F)(F)F)nc3)C2)CC1` (racemic) [Example E22, (R,S)-1-(1-Methylethyl)-4-({(1-[6-(trifluoromethyl)-3-pyridinyl]-3-pyrrolidinyl}carbonyl)hexahydro-1H-1,4-diazepine hydrochloride], the Ki at histamine H3 receptor [1] was under 10 nM.
On the same count and under the same terms, as for `O=C(C1CCN(c2ccnc(C(F)(F)F)c2)C1)N1CCCN(C2CCC2)CC1` (racemic) [Example E23, (R,S)-1-Cyclobutyl-4-({1-[2-(trifluoromethyl)-4-pyridinyl]-3-pyrrolidinyl}carbonyl)hexahydro-1H-1,4-diazepine hydrochloride], the figure is under 0.316 nM.
As to `O=C([C@@H]1CCN(c2ccc(C(F)(F)F)nc2)C1)N1CCCN(C2CCC2)CC1` (single isomer, unassigned) [Example E17A, hydrochloride], the Ki at histamine H3 receptor [1] was under 0.316 nM.
Regarding `O=C([C@H]1CCN(c2ccc(C(F)(F)F)nc2)C1)N1CCCN(C2CCC2)CC1` (single isomer, unassigned) [Example E17B, hydrochloride], the Ki at histamine H3 receptor [1] is under 0.316 nM.
In the case of `Cc1nnc(-c2ccc(N3CC[C@H](C(=O)N4CCN(C(C)C)CC4)C3)cc2)o1` [Example E30, 1-(1-Methylethyl)-4-({(3S)-1-[4-(5-methyl-1,3,4-oxadiazol-2-yl)phenyl]-3-pyrrolidinyl}carbonyl)piperazine], the Ki at histamine H3 receptor [2] is at most 0.316 nM.
Consider `Cc1nc(-c2ccc(N3CC[C@H](C(=O)N4CCN(C(C)C)CC4)C3)cc2)co1` [Example E32A, 1-(1-Methylethyl)-4-({(3S)-1-[4-(2-methyl-1,3-oxazol-4-yl)phenyl]-3-pyrrolidinyl}carbonyl)piperazine], for which, at histamine H3 receptor [2], the Ki is at most 0.316 nM.
On the same count and under the same terms, the figure for `Cc1nc(-c2ccc(N3CC[C@H](C(=O)N4CCN(C(C)C)CC4)C3)cc2)no1` [Example E33, 1-(1-Methylethyl)-4-({(3S)-1-[4-(5-methyl-1,2,4-oxadiazol-3-yl)phenyl]-3-pyrrolidinyl}carbonyl)piperazine] is at most 0.316 nM; for `Cc1ncc(-c2ccc(N3CC[C@H](C(=O)N4CCN(C(C)C)CC4)C3)cc2)o1` [Example E34, 1-(1-Methylethyl)-4-({(3S)-1-[4-(2-methyl-1,3-oxazol-5-yl)phenyl]-3-pyrrolidinyl}carbonyl)piperazine] it is at most 0.316 nM.
Take `CC(C)N1CCN(C(=O)[C@H]2CCN(c3ccc(C#N)cc3)C2)CC1` [Example E36, 4-((3S)-3-{[4-(1-Methylethyl)-1-piperazinyl]carbonyl}-1-pyrrolidinyl)benzonitrile hydrochloride]: the Ki at histamine H3 receptor [2] is at most 0.316 nM.
The same measure, in the same setting: as for `CC(C)N1CCN(C(=O)[C@H]2CCN(c3ccc(-c4nnc(-c5ccccc5)o4)cc3)C2)CC1` [Example E40, 1-(1-Methylethyl)-4-({(3S)-1-[4-(5-phenyl-1,3,4-oxadiazol-2-yl)phenyl]-3-pyrrolidinyl}carbonyl)piperazine], the figure is at most 0.316 nM; as for `CC(C)N1CCN(C(=O)[C@H]2CCN(c3ccc(-c4ccno4)cc3)C2)CC1` [Example E41, 1-({(3S)-1-[4-(5-isoxazolyl)phenyl]-3-pyrrolidinyl}carbonyl)-4-(1-methylethyl)piperazine], at most 0.316 nM.
The same measure, in the same setting: the figure for `CC(C)N1CCN(C(=O)[C@H]2CCN(c3ccc(-n4ccnc4)cc3)C2)CC1` [Example E43, 1-({(3S)-1-[4-(1H-imidazol-1-yl)phenyl]-3-pyrrolidinyl}carbonyl)-4-(1-methylethyl)piperazine] is at most 0.316 nM; for `Cc1nnc(-c2ccc(N3CC[C@H](C(=O)N4CCCN(C(C)C)CC4)C3)cc2)o1` [Example E47, 1-(1-Methylethyl)-4-({(3S)-1-[4-(5-methyl-1,3,4-oxadiazol-2-yl)phenyl]-3-pyrrolidinyl}carbonyl)hexahydro-1H-1,4-diazepine hydrochloride] it is at most 0.316 nM; for `CCc1noc(-c2ccc(N3CC[C@H](C(=O)N4CCCN(C(C)C)CC4)C3)cc2)n1` [Example E48, 1-({(3S)-1-[4-(3-Ethyl-1,2,4-oxadiazol-5-yl)phenyl]-3-pyrrolidinyl}carbonyl)-4-(1-methylethyl)hexahydro-1H-1,4-diazepine hydrochloride] it is at most 0.316 nM.
The same measure, in the same setting: as for `CCc1noc(-c2ccc(N3CC[C@H](C(=O)N4CCN(C(C)C)CC4)C3)cc2)n1` [Example E49, 1-({(3S)-1-[4-(3-Ethyl-1,2,4-oxadiazol-5-yl)phenyl]-3-pyrrolidinyl}carbonyl)-4-(1-methylethyl)piperazine hydrochloride], the figure is at most 0.316 nM; as for `Cc1noc(-c2ccc(N3CC[C@H](C(=O)N4CCN(C5CCC5)CC4)C3)cn2)n1` [Example E51, 1-Cyclobutyl-4-({(3S)-1-[6-(3-methyl-1,2,4-oxadiazol-5-yl)-3-pyridinyl]-3-pyrrolidinyl}carbonyl)piperazine hydrochloride], at most 0.316 nM; as for `Cc1noc(-c2ccc(N3CC[C@H](C(=O)N4CCN(C5CCC5)CC4)C3)cc2F)n1` [Example E52, 1-Cyclobutyl-4-({(3S)-1-[3-fluoro-4-(3-methyl-1,2,4-oxadiazol-5-yl)phenyl]-3-pyrrolidinyl}carbonyl)piperazine hydrochloride], at most 0.316 nM.
On to `Cc1noc(-c2ccc(N3CC[C@H](C(=O)N4CCCN(C(C)C)CC4)C3)cn2)n1` [Example E53, 1-(1-Methylethyl)-4-({(3S)-1-[6-(3-methyl-1,2,4-oxadiazol-5-yl)-3-pyridinyl]-3-pyrrolidinyl}carbonyl)hexahydro-1H-1,4-diazepine hydrochloride], for which the Ki on histamine H3 receptor [2] was at most 0.316 nM.
On the same count and under the same terms, as for `Cc1noc(-c2ccc(N3CC[C@H](C(=O)N4CCN(C(C)C)CC4)C3)cn2)n1` [Example E54, 1-(1-Methylethyl)-4-({(3S)-1-[6-(3-methyl-1,2,4-oxadiazol-5-yl)-3-pyridinyl]-3-pyrrolidinyl}carbonyl)piperazine hydrochloride], the figure is at most 0.316 nM; as for `Cc1cn(-c2ccc(N3CC[C@H](C(=O)N4CCN(C(C)C)CC4)C3)cc2)cn1` [Example E55, 1-(1-Methylethyl)-4-({(3S)-1-[4-(4-methyl-1H-imidazol-1-yl)phenyl]-3-pyrrolidinyl}carbonyl)piperazine dihydrochloride], at most 0.316 nM; as for `Cc1noc(-c2ccc(N3CC[C@H](C(=O)N4CCCN(CC5CC5)CC4)C3)cn2)n1` [Example E58, hydrochloride], at most 0.316 nM.
